Article PMC8909834, “An Orally Bioavailable and Highly Efficacious Inhibitor of CDK9/FLT3 for the Treatment of Acute Myeloid Leukemia” (Cancers, 2022)

Legend:
Test in all cases: Kinase Hotspot radiolabel assay
Type in all cases: biochemical
Settings in all cases: read-out: % Residual Activity
Aurora B = biological target: T1, Aurora B (Homo sapiens, UniProt Q96GD4)
T1 construct: purchased Reaction Biology Corporation (Kinase HotSpot)
Outline: (§1)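 Specificity was assessed across 369 kinases in a radioactive Hotspot assay, testing one compound concentration (1 µM). For any kinase inhibited above 90%, a Ki value was subsequently obtained.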

BRAF = biological target: T2, BRAF (Homo sapiens, UniProt P15056)
T2 construct: purchased Reaction Biology Corporation (Kinase HotSpot)
Outline: as §1

CDK1/cyclin E = biological target: T3, CDK1/cyclin E (Homo sapiens, UniProt P06493)
T3 construct: purchased Reaction Biology Corporation (Kinase HotSpot)
Outline: as §1

DCAMKL2 = biological target: T4, DCAMKL2 (Homo sapiens, UniProt Q8N568)
T4 construct: purchased Reaction Biology Corporation (Kinase HotSpot)
Outline: as §1

DYRK1/DYRK1A = biological target: T5, DYRK1/DYRK1A (Homo sapiens, UniProt Q13627)
T5 construct: purchased Reaction Biology Corporation (Kinase HotSpot)
Outline: as §1

DYRK3 = biological target: T6, DYRK3 (Homo sapiens, UniProt O43781)
T6 construct: purchased Reaction Biology Corporation (Kinase HotSpot)
Outline: as §1

EPHA3 = biological target: T7, EPHA3 (Homo sapiens, UniProt P29320)
T7 construct: purchased Reaction Biology Corporation (Kinase HotSpot)
Outline: as §1

FGR = biological target: T8, FGR (Homo sapiens, UniProt P09769)
T8 construct: purchased Reaction Biology Corporation (Kinase HotSpot)
Outline: as §1

FLT3 = biological target: T9, FLT3 (Homo sapiens, UniProt P36888)
T9 construct: purchased Reaction Biology Corporation (Kinase HotSpot)
Outline: as §1

GRK4 = biological target: T10, GRK4 (Homo sapiens, UniProt P32298)
T10 construct: purchased Reaction Biology Corporation (Kinase HotSpot)
Outline: as §1

GRK5 = biological target: T11, GRK5 (Homo sapiens, UniProt P34947)
T11 construct: purchased Reaction Biology Corporation (Kinase HotSpot)
Outline: as §1

HIPK2 = biological target: T12, HIPK2 (Homo sapiens, UniProt Q9H2X6)
T12 construct: purchased Reaction Biology Corporation (Kinase HotSpot)
Outline: as §1

LYN = biological target: T13, LYN (Homo sapiens, UniProt P07948)
T13 construct: purchased Reaction Biology Corporation (Kinase HotSpot)
Outline: as §1

MEKK6 = biological target: T14, MEKK6 (Homo sapiens, UniProt O95382)
T14 construct: purchased Reaction Biology Corporation (Kinase HotSpot)
Outline: as §1

OSR1/OXSR1 = biological target: T15, OSR1/OXSR1 (Homo sapiens, UniProt O95747)
T15 construct: purchased Reaction Biology Corporation (Kinase HotSpot)
Outline: as §1

PAK4 = biological target: T16, PAK4 (Homo sapiens, UniProt O96013)
T16 construct: purchased Reaction Biology Corporation (Kinase HotSpot)
Outline: as §1

PHKg1 = biological target: T17, PHKg1 (Homo sapiens, UniProt Q16816)
T17 construct: purchased Reaction Biology Corporation (Kinase HotSpot)
Outline: as §1

PKCeta = biological target: T18, PKCeta (Homo sapiens, UniProt P24723)
T18 construct: purchased Reaction Biology Corporation (Kinase HotSpot)
Outline: as §1

PKCtheta = biological target: T19, PKCtheta (Homo sapiens, UniProt Q04759)
T19 construct: purchased Reaction Biology Corporation (Kinase HotSpot)
Outline: as §1

PKN3/PRK3 = biological target: T20, PKN3/PRK3 (Homo sapiens, UniProt Q6P5Z2)
T20 construct: purchased Reaction Biology Corporation (Kinase HotSpot)
Outline: as §1

ROCK2 = biological target: T21, ROCK2 (Homo sapiens, UniProt O75116)
T21 construct: purchased Reaction Biology Corporation (Kinase HotSpot)
Outline: as §1

RSK3 = biological target: T22, RSK3 (Homo sapiens, UniProt Q15349)
T22 construct: purchased Reaction Biology Corporation (Kinase HotSpot)
Outline: as §1

SBK1 = biological target: T23, SBK1 (Homo sapiens, UniProt Q52WX2)
T23 construct: purchased Reaction Biology Corporation (Kinase HotSpot)
Outline: as §1

SGK3/SGKL = biological target: T24, SGK3/SGKL (Homo sapiens, UniProt Q96BR1)
T24 construct: purchased Reaction Biology Corporation (Kinase HotSpot)
Outline: as §1

SRMS = biological target: T25, SRMS (Homo sapiens, UniProt Q9H3Y6)
T25 construct: purchased Reaction Biology Corporation (Kinase HotSpot)
Outline: as §1

SRPK2 = biological target: T26, SRPK2 (Homo sapiens, UniProt P78362)
T26 construct: purchased Reaction Biology Corporation (Kinase HotSpot)
Outline: as §1

STK16 = biological target: T27, STK16 (Homo sapiens, UniProt O75716)
T27 construct: purchased Reaction Biology Corporation (Kinase HotSpot)
Outline: as §1

STK38L/NDR2 = biological target: T28, STK38L/NDR2 (Homo sapiens, UniProt Q9Y2H1)
T28 construct: purchased Reaction Biology Corporation (Kinase HotSpot)
Outline: as §1

TAK1 = biological target: T29, TAK1 (Homo sapiens, UniProt O43318)
T29 construct: purchased Reaction Biology Corporation (Kinase HotSpot)
Outline: as §1

TSSK3/STK22C = biological target: T30, TSSK3/STK22C (Homo sapiens, UniProt Q96PN8)
T30 construct: purchased Reaction Biology Corporation (Kinase HotSpot)
Outline: as §1

T23 sequence (Q52WX2 whole entry): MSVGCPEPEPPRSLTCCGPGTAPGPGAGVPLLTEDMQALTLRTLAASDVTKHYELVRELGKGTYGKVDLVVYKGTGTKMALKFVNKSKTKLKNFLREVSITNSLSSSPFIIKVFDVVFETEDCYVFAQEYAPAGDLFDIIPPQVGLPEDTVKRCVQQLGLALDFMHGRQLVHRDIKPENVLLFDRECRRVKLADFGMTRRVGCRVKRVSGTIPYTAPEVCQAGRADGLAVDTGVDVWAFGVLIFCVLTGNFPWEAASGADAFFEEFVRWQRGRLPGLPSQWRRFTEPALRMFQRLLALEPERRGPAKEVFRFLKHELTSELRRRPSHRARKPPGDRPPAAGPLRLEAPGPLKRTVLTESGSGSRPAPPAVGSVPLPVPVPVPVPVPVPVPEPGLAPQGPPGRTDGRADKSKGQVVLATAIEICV
T25 sequence (Q9H3Y6 whole entry): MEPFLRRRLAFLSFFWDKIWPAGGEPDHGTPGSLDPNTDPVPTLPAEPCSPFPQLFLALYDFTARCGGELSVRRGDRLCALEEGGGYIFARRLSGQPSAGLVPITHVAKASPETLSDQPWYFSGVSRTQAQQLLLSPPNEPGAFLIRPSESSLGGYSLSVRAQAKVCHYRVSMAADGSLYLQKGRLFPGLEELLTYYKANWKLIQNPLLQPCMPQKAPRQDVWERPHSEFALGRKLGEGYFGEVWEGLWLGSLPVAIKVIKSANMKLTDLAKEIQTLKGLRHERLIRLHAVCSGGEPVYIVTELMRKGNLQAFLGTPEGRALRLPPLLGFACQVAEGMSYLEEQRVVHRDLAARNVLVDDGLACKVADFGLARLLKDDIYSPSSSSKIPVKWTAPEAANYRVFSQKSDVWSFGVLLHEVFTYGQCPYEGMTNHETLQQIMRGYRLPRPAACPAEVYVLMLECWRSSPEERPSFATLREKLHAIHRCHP
T28 sequence (Q9Y2H1 whole entry): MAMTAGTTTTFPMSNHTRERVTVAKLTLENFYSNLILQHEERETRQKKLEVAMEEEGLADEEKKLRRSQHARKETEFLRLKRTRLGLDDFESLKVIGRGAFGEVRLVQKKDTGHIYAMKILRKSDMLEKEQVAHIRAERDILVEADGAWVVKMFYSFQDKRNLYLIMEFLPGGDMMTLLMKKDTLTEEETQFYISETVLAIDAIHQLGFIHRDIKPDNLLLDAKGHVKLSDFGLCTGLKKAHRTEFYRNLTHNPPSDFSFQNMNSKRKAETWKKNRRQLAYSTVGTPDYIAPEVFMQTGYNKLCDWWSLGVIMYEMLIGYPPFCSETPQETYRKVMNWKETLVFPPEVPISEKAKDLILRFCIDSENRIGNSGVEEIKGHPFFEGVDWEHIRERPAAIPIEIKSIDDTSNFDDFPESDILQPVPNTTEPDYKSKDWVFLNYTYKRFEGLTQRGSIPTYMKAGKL
T8 sequence (P09769 whole entry): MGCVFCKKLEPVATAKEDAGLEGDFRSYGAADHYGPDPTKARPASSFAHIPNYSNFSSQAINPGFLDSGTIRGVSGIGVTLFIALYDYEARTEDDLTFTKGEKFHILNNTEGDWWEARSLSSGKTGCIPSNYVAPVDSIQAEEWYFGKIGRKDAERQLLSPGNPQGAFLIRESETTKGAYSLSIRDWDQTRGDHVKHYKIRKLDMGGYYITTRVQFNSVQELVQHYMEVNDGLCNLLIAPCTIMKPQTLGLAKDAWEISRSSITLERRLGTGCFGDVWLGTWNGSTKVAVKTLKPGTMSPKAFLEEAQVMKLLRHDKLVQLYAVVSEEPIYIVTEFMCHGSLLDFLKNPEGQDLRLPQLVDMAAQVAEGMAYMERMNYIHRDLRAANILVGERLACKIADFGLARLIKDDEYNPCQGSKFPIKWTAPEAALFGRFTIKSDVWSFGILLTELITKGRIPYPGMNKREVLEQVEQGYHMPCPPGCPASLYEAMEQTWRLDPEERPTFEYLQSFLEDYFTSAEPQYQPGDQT
T17 sequence (Q16816 whole entry): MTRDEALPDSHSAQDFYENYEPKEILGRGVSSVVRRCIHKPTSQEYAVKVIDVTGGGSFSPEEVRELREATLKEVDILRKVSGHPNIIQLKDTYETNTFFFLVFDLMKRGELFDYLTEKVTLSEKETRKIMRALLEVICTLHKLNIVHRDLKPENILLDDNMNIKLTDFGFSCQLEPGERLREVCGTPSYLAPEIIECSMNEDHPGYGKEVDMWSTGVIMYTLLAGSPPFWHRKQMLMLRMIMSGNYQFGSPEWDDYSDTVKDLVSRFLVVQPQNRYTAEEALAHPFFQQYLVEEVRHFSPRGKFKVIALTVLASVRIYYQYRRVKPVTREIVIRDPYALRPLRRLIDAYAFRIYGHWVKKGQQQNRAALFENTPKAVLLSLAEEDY
T3 sequence (P06493 whole entry): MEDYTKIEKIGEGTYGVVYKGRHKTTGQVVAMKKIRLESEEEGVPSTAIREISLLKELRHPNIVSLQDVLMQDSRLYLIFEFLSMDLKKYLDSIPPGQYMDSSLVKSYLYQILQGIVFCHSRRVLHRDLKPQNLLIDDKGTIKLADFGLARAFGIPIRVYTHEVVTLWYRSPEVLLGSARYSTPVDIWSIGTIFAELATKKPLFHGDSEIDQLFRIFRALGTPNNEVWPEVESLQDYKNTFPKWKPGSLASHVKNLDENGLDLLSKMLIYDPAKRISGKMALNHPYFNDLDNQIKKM
T3 sequence (P24864 whole entry partner): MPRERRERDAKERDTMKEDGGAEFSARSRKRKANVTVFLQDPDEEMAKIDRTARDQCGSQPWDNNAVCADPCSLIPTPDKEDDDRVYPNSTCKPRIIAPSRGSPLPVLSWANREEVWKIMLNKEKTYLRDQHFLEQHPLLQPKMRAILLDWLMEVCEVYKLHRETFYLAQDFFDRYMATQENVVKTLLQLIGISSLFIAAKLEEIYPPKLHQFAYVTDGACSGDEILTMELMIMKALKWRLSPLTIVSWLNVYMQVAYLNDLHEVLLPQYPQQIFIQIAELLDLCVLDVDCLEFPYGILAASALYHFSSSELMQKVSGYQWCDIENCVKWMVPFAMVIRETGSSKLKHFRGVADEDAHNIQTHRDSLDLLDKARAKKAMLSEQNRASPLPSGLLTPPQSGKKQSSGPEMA
T1 sequence (Q96GD4 whole entry): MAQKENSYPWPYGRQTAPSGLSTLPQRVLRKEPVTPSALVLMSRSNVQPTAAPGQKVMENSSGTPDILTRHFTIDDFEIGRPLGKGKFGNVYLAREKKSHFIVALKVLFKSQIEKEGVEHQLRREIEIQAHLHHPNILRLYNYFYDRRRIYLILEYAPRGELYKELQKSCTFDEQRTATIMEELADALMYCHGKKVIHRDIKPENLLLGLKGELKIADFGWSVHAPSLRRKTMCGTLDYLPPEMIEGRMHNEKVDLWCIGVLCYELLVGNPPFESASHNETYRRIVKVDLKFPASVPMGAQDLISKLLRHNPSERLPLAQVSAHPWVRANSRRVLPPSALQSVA
T9 sequence (P36888 27-993): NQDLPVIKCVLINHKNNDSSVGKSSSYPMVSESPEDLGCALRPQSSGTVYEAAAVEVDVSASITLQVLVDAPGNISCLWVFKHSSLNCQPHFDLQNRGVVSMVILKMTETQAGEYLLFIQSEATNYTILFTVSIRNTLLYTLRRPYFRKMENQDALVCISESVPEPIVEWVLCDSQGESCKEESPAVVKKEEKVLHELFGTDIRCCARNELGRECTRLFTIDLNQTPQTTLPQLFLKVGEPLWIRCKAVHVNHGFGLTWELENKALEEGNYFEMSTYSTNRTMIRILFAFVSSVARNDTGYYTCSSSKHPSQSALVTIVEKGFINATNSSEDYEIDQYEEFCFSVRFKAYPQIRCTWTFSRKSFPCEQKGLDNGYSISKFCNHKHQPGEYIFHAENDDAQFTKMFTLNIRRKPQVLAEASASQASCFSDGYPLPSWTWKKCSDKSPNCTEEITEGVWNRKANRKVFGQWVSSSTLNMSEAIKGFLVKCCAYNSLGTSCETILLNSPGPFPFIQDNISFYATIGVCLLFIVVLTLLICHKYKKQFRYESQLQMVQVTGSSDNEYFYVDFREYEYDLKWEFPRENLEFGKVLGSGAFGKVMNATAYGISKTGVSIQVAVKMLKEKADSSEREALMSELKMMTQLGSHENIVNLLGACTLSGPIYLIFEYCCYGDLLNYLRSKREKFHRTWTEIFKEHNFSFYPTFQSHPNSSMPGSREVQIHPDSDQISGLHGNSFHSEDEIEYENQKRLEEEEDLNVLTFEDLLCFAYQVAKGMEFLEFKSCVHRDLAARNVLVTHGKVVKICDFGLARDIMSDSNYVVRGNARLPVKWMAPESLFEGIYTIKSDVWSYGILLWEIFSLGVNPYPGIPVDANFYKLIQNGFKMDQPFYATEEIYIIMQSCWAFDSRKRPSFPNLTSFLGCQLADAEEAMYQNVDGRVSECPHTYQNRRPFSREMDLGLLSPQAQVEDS
T27 sequence (O75716 whole entry): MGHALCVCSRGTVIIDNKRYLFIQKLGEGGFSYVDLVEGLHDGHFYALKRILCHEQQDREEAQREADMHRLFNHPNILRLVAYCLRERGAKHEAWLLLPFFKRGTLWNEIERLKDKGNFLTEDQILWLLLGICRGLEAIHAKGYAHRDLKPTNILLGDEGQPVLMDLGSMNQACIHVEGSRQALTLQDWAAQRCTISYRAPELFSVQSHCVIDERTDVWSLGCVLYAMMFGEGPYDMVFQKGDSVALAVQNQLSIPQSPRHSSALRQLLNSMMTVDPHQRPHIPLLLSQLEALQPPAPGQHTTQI
T30 sequence (Q96PN8 whole entry): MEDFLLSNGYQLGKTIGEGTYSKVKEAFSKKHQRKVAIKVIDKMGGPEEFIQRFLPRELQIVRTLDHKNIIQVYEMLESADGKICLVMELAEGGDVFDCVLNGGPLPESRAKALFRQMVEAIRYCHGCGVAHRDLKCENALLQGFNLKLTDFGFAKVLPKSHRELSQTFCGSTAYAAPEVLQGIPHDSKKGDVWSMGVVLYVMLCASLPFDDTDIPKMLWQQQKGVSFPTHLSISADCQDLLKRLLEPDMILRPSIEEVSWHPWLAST

Cc1cnc(N[C@H]2CC[C@H](N)CC2)nc1-c1cnc2ccc(-c3ccccc3)cn12 [CDDD11-8]
remaining activity at 1 µM (Aurora B): 89.6% | remaining activity at 1 µM (BRAF): 99.7% | remaining activity at 1 µM (CDK1/cyclin E): 87.5% | remaining activity at 1 µM (DCAMKL2): 108% | remaining activity at 1 µM (DYRK1/DYRK1A): 63.9% | remaining activity at 1 µM (DYRK3): 23.2% | remaining activity at 1 µM (EPHA3): 94% | remaining activity at 1 µM (FGR): 73.4% | remaining activity at 1 µM (FLT3): 2.43% | remaining activity at 1 µM (GRK4): 98.2% | remaining activity at 1 µM (GRK5): 88.9% | remaining activity at 1 µM (HIPK2): 104% | remaining activity at 1 µM (LYN): 65.5% | remaining activity at 1 µM (MEKK6): 104% | remaining activity at 1 µM (OSR1/OXSR1): 101% | remaining activity at 1 µM (PAK4): 99.7% | remaining activity at 1 µM (PHKg1): 59.2% | remaining activity at 1 µM (PKCeta): 47.3% | remaining activity at 1 µM (PKCtheta): 46.2% | remaining activity at 1 µM (PKN3/PRK3): 81% | remaining activity at 1 µM (ROCK2): 88.9% | remaining activity at 1 µM (RSK3): 45.6% | remaining activity at 1 µM (SBK1): 102% | remaining activity at 1 µM (SGK3/SGKL): 115% | remaining activity at 1 µM (SRMS): 101% | remaining activity at 1 µM (SRPK2): 95.3% | remaining activity at 1 µM (STK16): 75.2% | remaining activity at 1 µM (STK38L/NDR2): 96.7% | remaining activity at 1 µM (TAK1): 77.8% | remaining activity at 1 µM (TSSK3/STK22C): 98.3%
